Activity calls are given as the source filed them.
How the values were obtained:
[1] = intracellular Trypanosoma cruzi inhibitors in host cells – cell-based, plate reader, cherry-pick samples, set 3, dose response (AID 651818); type: functional;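 also: compounds incubated with infected cells for about four days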
[2] = target: T1, Calpain-2 catalytic subunit (Sus scrofa, UniProt P43367); assay: pig calpain II inhibitor potency, dose response, biochemical, fluorogenic peptide substrate (AID 1420); type: functional
T1 sequence (P43367 whole entry): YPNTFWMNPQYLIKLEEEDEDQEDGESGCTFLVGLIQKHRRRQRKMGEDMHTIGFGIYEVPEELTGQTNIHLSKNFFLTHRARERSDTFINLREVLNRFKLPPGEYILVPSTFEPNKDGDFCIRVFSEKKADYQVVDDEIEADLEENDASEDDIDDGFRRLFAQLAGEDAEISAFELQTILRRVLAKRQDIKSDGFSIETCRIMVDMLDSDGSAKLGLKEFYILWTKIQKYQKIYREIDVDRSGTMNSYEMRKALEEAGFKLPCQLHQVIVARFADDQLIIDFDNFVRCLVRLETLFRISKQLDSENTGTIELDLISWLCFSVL

[3] = inhibitors of HIV Env-driven cell fusion, dose response, cherry-pick (AID 652057); type: functional, cell-based
[4] = inhibitors of clade B AD8 Env fusion, dose response, cell-based, cherry-pick (AID 652062); type: functional;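 also: luciferase signal from cell-cell fusion driven by HIV-1 clade B AD8 Env; potency is for inhibitors of fusion seen as a drop in luminescence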
[5] = off-target signal loss in HeLa-CEM21 co-culture – HeLa F-luc CTL cells, cherry-picked, counter-screen for HIV-1 Env fusion inhibitor project, dose response (AID 652040); type: functional, cell-based;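 also: potency for signal decrease marking cytotoxic or nonspecific inhibition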
[6] = ZM109 Env clade C HIV-1 fusion inhibitors, dose response, HeLa effector, CEM target cells, luciferase, cherry-pick (AID 652058); type: functional, cell-based
[7] = target: Induced myeloid leukemia cell differentiation protein Mcl-1 (Homo sapiens, UniProt Q07820); type: functional
Induced myeloid leukemia cell differentiation protein Mcl-1, sequence (Q07820 whole entry): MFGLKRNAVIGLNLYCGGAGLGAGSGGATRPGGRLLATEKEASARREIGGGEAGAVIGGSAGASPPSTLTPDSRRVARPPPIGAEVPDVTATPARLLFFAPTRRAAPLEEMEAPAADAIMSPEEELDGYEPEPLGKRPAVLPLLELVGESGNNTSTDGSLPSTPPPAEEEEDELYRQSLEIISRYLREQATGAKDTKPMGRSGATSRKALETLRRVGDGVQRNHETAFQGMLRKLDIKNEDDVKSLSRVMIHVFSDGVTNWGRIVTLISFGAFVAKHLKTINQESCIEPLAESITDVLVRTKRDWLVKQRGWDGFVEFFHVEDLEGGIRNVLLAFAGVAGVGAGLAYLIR

[8] = target: T2, Protein RecA (Mycobacterium tuberculosis, UniProt P9WHJ3); assay: Fluorescence Cell-Free Homogeneous Dose Retest to Identify Inhibitors of RecA-Intein Splicing Activity. [Related pubchem assays (depositor defined):AID2097, AID2223, AID489010, AID492950]; type: functional
T2 sequence (P9WHJ3 whole entry): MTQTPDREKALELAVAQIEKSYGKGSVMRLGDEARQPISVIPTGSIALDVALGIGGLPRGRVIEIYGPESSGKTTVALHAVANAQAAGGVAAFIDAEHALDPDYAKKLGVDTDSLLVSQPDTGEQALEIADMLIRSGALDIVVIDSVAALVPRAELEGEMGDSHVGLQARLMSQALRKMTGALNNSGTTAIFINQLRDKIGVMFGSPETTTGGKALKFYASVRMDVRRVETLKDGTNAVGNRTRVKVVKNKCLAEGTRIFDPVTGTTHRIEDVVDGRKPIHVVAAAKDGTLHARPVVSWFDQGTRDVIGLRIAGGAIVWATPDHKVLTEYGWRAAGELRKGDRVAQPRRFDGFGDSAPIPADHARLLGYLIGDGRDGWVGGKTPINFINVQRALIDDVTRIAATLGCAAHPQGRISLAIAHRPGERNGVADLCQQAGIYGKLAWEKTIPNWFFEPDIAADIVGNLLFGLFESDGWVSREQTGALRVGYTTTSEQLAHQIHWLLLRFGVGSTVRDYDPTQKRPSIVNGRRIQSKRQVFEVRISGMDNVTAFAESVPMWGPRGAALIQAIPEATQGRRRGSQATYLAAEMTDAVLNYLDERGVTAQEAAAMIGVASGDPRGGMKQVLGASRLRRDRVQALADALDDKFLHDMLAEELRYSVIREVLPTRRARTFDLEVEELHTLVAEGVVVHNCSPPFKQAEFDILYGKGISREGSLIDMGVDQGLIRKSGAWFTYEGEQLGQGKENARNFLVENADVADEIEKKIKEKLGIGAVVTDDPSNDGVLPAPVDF

[9] = microbe, parasite or virus in culture; type: functional; conditions: Mycobacterium tuberculosis
[10] = target: T3, Replicative DNA helicase DnaB (Mycobacterium tuberculosis, UniProt P9WMR3); assay: DnaB intein splicing inhibitors, dose response, biochemical, cell-free fluorescence (AID 449749); type: functional
T3 sequence (P9WMR3 whole entry): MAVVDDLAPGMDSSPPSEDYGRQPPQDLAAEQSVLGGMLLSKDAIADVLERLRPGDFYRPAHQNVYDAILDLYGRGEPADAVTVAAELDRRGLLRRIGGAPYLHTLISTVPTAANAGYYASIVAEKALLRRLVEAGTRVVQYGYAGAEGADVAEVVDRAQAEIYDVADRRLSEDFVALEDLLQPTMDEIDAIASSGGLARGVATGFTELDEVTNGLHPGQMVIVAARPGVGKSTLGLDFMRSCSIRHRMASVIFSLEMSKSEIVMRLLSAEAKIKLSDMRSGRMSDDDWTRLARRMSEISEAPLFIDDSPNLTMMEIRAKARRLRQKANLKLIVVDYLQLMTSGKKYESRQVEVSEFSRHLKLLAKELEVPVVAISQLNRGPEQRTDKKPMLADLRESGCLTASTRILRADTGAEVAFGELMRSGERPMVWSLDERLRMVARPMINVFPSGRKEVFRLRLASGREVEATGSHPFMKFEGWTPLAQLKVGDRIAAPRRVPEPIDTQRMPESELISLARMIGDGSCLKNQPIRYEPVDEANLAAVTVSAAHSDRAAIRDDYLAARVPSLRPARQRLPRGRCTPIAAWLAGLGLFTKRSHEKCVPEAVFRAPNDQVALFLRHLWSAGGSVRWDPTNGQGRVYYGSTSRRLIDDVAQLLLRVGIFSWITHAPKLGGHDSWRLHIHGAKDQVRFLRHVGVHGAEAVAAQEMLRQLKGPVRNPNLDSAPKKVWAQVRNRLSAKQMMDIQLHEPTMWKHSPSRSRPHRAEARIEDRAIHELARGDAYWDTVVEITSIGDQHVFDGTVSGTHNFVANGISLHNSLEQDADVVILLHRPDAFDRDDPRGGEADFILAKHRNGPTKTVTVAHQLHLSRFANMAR

[11] = target: T4, Microphthalmia-associated transcription factor (Homo sapiens, UniProt O75030); assay: TRPM1 promoter luciferase signal decrease, dose response, MITF inhibitor project, cell-based, SK-MEL-5, cherry-picked, set 3 (AID 493073); type: functional
T4 sequence (O75030 whole entry): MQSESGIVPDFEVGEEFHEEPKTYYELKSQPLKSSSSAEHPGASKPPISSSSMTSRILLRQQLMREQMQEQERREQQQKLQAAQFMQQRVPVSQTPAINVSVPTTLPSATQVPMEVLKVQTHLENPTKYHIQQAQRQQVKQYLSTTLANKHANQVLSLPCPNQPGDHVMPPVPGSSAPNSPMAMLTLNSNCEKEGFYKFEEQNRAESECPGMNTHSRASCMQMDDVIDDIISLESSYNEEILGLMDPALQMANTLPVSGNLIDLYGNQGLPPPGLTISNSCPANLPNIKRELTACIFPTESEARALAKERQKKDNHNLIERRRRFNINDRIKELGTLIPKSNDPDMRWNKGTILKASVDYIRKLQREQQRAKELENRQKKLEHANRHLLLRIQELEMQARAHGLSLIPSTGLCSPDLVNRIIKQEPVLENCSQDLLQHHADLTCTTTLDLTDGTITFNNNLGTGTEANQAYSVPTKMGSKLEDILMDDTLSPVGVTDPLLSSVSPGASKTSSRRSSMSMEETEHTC

[12] = system: Vero; assay: cells; type: functional, cell-based; conditions: Chlorocebus sabaeus

Question: Which AC50 [1] does the source give for C[C@@H]1CN([C@H](C)CO)C(=O)Cc2cc(NC(=O)Nc3cccc4ccccc34)ccc2O[C@H]1CN(C)Cc1ccc(C(F)(F)F)cc1 here?
Answer: 3.46 µM (active)

Question: For Cc1ccc(S(=O)(=O)Nc2ccc3c(c2)CC(=O)N([C@@H](C)CO)C[C@H](C)[C@@H](CN(C)Cc2ccc(C(=O)Nc4ccccc4N)cc2)O3)cc1, which AC50 [1] is on record?
Answer: 2.74 µM (active)

Question: With O=C(CCCCn1c(=O)c2ccccc2n(CC(=O)NC2CCCC2)c1=O)NCc1ccco1 as the molecule, how does the IC50 [2] read?
Answer: 28.8 µM (not active)

Question: Which results are given for COc1ccc(N2C(=O)N3[C@H](c4ccc(Cl)cc4)[C@@H]4C(=O)N(C5CCCCC5)C(=O)[C@@H]4[C@]3(C)C2=O)cc1?
Answer: AC50 [3]: 2.73 µM (active); AC50 [4]: 5.1 µM (active); AC50 [5]: 3.54 µM (active); AC50 [6]: 3.16 µM (active)

Question: For Cc1ccc2c(c1)nnn2C1CCN(S(=O)(=O)c2ccc(C(=O)N3CC(C)CC(C)C3)cc2)CC1 (configuration not stated), which IC50 [2] is on record?
Answer: 3.74 µM (not active)

Question: Which IC50 [7] does the source give for Oc1c(Cl)cc(Cl)cc1/C=C/c1ccc2cccc(O)c2n1 here?
Answer: 6.97 µM (not active)

Question: With C[C@H](CO)N1C[C@H](C)[C@@H](CN(C)Cc2ccc(Oc3ccccc3)cc2)Oc2c(NS(=O)(=O)c3ccc(Cl)cc3)cccc2C1=O as the molecule, how does the AC50 [1] read?
Answer: 3.36 µM (active)

Question: Which results are given for Cc1ccc(NC(=O)CCl)cc1S(=O)(=O)N1CCCCCC1?
Answer: EC50 [8]: 3.67 µM (active); CC50 [9]: 6.13 µM (active); AC50 [10]: 14.7 µM (active); AC50 [11]: 7.55 µM (active)

Question: Which IC50 [7] does the source give for Oc1c(Br)cc(/C=N/c2ccc3[nH]c(-c4ccccc4)nc3c2)c(O)c1Br here?
Answer: 1.49 µM (active)

Question: With COCCN=C(S)NCc1ccc2[nH]c3c(c2c1)CCCC3 as the molecule, how does the IC50 [12] read?
Answer: 23.6 µM (active)

Question: For C[C@@H]1CN([C@@H](C)CO)C(=O)c2cccc(NC(=O)c3nc4ccccc4s3)c2O[C@@H]1CN(C)Cc1ccc(C(=O)Nc2ccccc2N)cc1, which AC50 [1] is on record?
Answer: 2.88 µM (active)
